Structures can show the parent of a compound that is named as a salt. Where two headings read alike, the source gives them in different places.
Experiments:
[1] = biological target: T1, Alpha2D adrenergic receptor (Rattus norvegicus, UniProt P22909); assay: Alpha2D adrenergic receptor binding assay (3H-paraaminoclonidine, rat cortex synaptic membranes); set-up: species or system Wistar rats
T1 construct: aliquots of the synaptic membrane fraction; from tissue; host or cells: rat cerebral cortex, synaptic membrane fraction
T1 sequence (P22909 1-465): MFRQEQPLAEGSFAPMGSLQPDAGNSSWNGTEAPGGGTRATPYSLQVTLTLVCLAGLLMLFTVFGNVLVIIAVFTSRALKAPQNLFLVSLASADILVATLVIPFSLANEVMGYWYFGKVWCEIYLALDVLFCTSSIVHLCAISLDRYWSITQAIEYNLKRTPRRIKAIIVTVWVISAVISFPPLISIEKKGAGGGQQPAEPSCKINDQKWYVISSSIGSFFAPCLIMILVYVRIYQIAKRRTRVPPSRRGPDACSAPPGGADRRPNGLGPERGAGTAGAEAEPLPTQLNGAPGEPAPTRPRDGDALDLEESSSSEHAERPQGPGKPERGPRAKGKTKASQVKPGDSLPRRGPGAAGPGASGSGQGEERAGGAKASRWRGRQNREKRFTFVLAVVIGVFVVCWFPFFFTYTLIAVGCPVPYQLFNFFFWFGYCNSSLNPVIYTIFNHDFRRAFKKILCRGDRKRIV
Description: Alpha2D adrenergic receptor binding assay
Male, Wistar rats (150-250 g, VAF, Charles River, Kingston, N.Y.) are sacrificed by cervical dislocation and their brains removed and placed immediately in ice cold HEPES buffered sucrose. The cortex is dissected out and homogenized in 20 volumes of HEPES sucrose in a Teflon®-glass homogenizer. The homogenate is centrifuged at 1000 g for 10 min, and the resulting supernatant centrifuged at 42,000 g for 10 min. The resulting pellet is resuspended in 30 volumes of 3 mM potassium phosphate buffer, pH 7.5, preincubated at 25° C. for 30 min and recentrifuged. The resulting pellet is resuspended as described above and used for the receptor binding assay. Incubation is performed in test tubes containing phosphate buffer, 2.5 mM MgCl2, aliquots of the synaptic membrane fraction, the ligand ^3 H-paraaminoclonidine and test drug at 25°0 C. for 20 min. The incubation is terminated by filtration of the tube contents through glass fiber filter sheets. Following washing of the sheets with 10 mM HEPES buffer, the adhering radioactivity is quantified by liquid scintillation spectrometry.
Binding of the test drug to the receptor is determined by comparing the amount of radiolabeled ligand bound in control tubes without drug to the amount of radiolabeled ligand bound in the presence of the drug. Dose-response data are analyzed with LIGAND, a nonlinear curve fitting program designed specifically for the analysis of ligand binding data. This assay is described by Simmons, R. M. A., and Jones, D. J., Binding of [^3 H-]prazosin and [^3 H-]p-aminoclonidine to α-Adrenoceptors in Rat Spinal Cord, Brain Research 445:338-349, 1988.

[2] = tested on: acetylcholine bromide-induced abdominal constriction response; assay: Mouse Acetylcholine Bromide-Induced Abdominal Constriction Assay; assay type: in vivo; details: p.o., 30 min before acetylcholine bromide 5.5 mg/kg i.p.; for inhibition at 30 mg/kg: @30 mpk; for ED50: po, 0.5 h, dose producing 50% analgesia
Description: Mouse Acetylcholine Bromide-Induced Abdominal Constriction Assay
The mouse acetylcholine bromide-induced abdominal constriction assay, as described by Collier et al. in Brit. J. Pharmacol. Chem. Ther., 32:295-310, 1968, with minor modifications was used to assess analgesic potency of the compounds herein. The test drugs or appropriate vehicle were administered orally (p.o.) and 30 minutes later the animal received an intraperitoneal (i.p.) injection of 5.5 mg/kg acetylcholine bromide (Matheson, Coleman and Bell, East Rutherford, N.J.). The mice were then placed in groups of three into glass bell jars and observed for a ten minute observation period for the occurrence of an abdominal constriction response (defined as a wave of constriction and elongation passing caudally along the abdominal wall, accompanied by a twisting of the trunk and followed by extension of the hind limbs). The percent inhibition of this response to a nociceptive stimulus (equated to % analgesia) was calculated as follows: The % Inhibition of response, i.e., % analgesia is equal to the difference between the number of control animals response and the number of drug-treated animals response times 100 divided by the number of control animals responding.
At least 15 animals were used for control and in each of the drug treated groups. At least three doses were used to determine each dose response curve and ED50 (that dose which would produce 50% analgesia). The ED50 values and their 95% fiducial limits were determined by a computer assisted probit analysis.

α2-adrenoceptor [3] = details: cited from earlier work; for hypotensive effect: animals and humans, magnitude relatively insignificant
α2-adrenoceptor [4] = details: non-opiate mechanism, without opiate liability; cited from earlier work
[5] = 3H-paraaminoclonidine, rat cortex, 25° C, 20 min, read-out: Ki

| SMILES | Ki [1, 5] [nM] | inhibition at 30 mg/kg [2] [%] | ED50 [2] [mg/kg] | Ki [1] [nM] | other results |
| --- | --- | --- | --- | --- | --- |
| Cc1cc(C(C)c2c[nH]cn2)c(C)s1 (stereo not shown) | 6.1 | 100 |  |  |  |
| c1nc(Cc2ccsc2)c[nH]1 | 3.1 |  | 6.4 |  |  |
| Cc1sccc1C(C)c1c[nH]cn1 (stereo not shown) | 2.3 |  | 1.6 |  |  |
| CC(c1ccsc1)c1c[nH]cn1 (stereo not shown) | 2.5 | 100 |  |  |  |
| Cc1csc(C)c1C(C)c1c[nH]cn1 (stereo not shown) | 33.5 |  | 7.8 |  |  |
| CCc1cc(C(C)c2c[nH]cn2)c(CC)s1 (stereo not shown) | 11.4 | 67 |  |  |  |
| CCc1sccc1C(C)c1c[nH]cn1 (stereo not shown) | 1.1 | 100 |  |  |  |
| C=C(c1c[nH]cn1)c1csc(Br)c1Br | 0.98 | 27 |  |  |  |
| Cc1cccc(C(C)c2cnc[nH]2)c1C (racemic) [Medetomidine] |  |  |  |  | hypotensive effect (α2-adrenoceptor [3]): hypotensive in animals and in humans, but the magnitude of this cardiovascular effect is relatively insignificant |
| Clc1cccc(Cl)c1NC1=NCCN1 [Clonidine] |  |  |  |  | other behavioral and physiological effects (α2-adrenoceptor [3]; in vivo): sedation and cardiovascular effects; analgesia (α2-adrenoceptor [4]): produce analgesia through a non-opiate mechanism |
| Cc1sccc1Cc1c[nH]cn1 [Cp-1, 4-[(2-Methylthien-3-yl)methyl]-1H-imidazole Fumarate] |  | 100 |  | 0.44 |  |
| Cc1cscc1Cc1c[nH]cn1.O=C(O)/C=C/C(=O)O [Cp-2, 4-[(4-Methylthien-3-yl)methyl]-1H-imidazole Fumarate] |  |  | 0.4 | 0.47 |  |
| Cc1cscc1C(C)c1c[nH]cn1.O=C(O)/C=C/C(=O)O (stereo not shown) [Cp-3, 4-[1-(4-Methylthien-3-yl)ethyl]-1H-imidazole Fumarate] |  |  | 0.4 | 0.39 |  |
| CCC(c1c[nH]cn1)c1cscc1C (stereo not shown) [Cp-4, 4-[1-(4-Methylthien-3-yl)propyl]-1H-imidazole Fumarate] |  | 100 |  | 0.97 |  |
| Cc1cc(Cc2c[nH]cn2)c(C)s1.O=C(O)/C=C/C(=O)O [Cp-5, 4-[(2,5-dimethylthien-3-yl)methyl]-1H-imidazole Fumarate] |  |  | 1.3 | 0.69 |  |
| CCc1cc(Cc2c[nH]cn2)c(CC)s1.O=C(O)/C=C/C(=O)O [Cp-6, 4-[(2,5-diethylthien-3-yl)methyl]-1H-imidazole Fumarate] |  |  | 3.7 | 0.4 |  |
| CCc1sccc1Cc1c[nH]cn1.O=C(O)/C=C/C(=O)O [Cp-7, 4-[(2-ethylthien-3-yl)methyl]-1H-imidazole fumarate] |  |  | 0.4 | 0.07 |  |
| Cc1csc(C)c1Cc1c[nH]cn1 [Cp-8, 4-[(2,4-Dimethylthien-3-yl)methyl]-1H-imidazole Fumarate] |  | 100 |  | 0.1 |  |
| CCc1cscc1Cc1c[nH]cn1 [Cp-9, 4-[(4-ethylthien-3-yl)methyl]-1H-imidazole fumarate] |  | 100 |  | 0.29 |  |
| CCc1cscc1C(C)c1c[nH]cn1 (stereo not shown) [Cp-10, 4-[1-(4-ethylthien-3-yl)ethyl]-1H-imidazole fumarate] |  | 100 |  | 0.28 |  |
| Cc1cccc(Cc2c[nH]cn2)c1C [detomidine] |  |  |  |  | hypotensive effect (α2-adrenoceptor [3]): hypotensive in animals and in humans, but the magnitude of this cardiovascular effect is relatively insignificant |
